Reference: patent US4492693A, “Benzothienylglycyl cephalosporin derivatives” (priority 1983, dated 1985)
Values after ≈ are worked out from the molar mass of the structure shown. Where two headings read alike, the source gives them in different places.

What was measured:
Strep. D = test: Agar Dilution MIC (Table I); assay type: cell-based; conditions: read-out: Agar Dilution MIC
Excerpt: (§1) A typical and preferred compound provided by this invention is 7-(3-benzothienyl)glycylamido-3-methyl-3-cephem-4-carboxylic acid, the compound illustrated in Example 9. The antibacterial activity of this compound has been determined in standard in vitro agar dilution assays against a variety of gram positive and gram negative microorganism. The following Tables present typical minimum inhibitory concentrations (MIC's) in μg/ml for several compounds of the invention when evaluated against the indicated microorganisms. MIC's for several known compounds are also presented for comparison.
Agar Dilution MIC (μg/ml)

Klebsiella = test: Agar Dilution MIC (Table I); assay type: cell-based; conditions: Klebsiella, read-out: Agar Dilution MIC
E. coli = test: Agar Dilution MIC (Table I); assay type: cell-based; conditions: Escherichia coli
Staph. epi [1] = test: Agar Dilution MIC (Table I); assay type: cell-based; conditions: read-out: Agar Dilution MIC
Staph. aureus [2] = test: Agar Dilution MIC (Table I); assay type: cell-based; conditions: Staphylococcus aureus, read-out: Agar Dilution MIC
Strep. PN = test: Agar Dilution MIC (Table I); assay type: cell-based; conditions: strain PARK
Bacteroides corrodens = test: Susceptibility of Anaerobic Bacteroides Isolates by the Agar-Dilution Method (Table III); assay type: cell-based; conditions: Eikenella corrodens; strain 1874; readings 24 hrs. after incubation
Excerpt: as §1
(§2) Susceptibility of Anaerobic Bacteroides Isolates by the
(§3) Agar-Dilution Method MIC (μg/ml) readings 24 hrs. after incubation

Bacteroides fragilis [3] = test: as above; assay type: cell-based; conditions: 24 h
Excerpt: as §1, §2, §3

[4] = test system: Bacteroides thetaiotaomicron; test: as above; assay type: cell-based; conditions: 24 h
Excerpt: as §1, §2, §3

H. influ. = test: Agar Dilution MIC (Table I); assay type: cell-based; conditions: read-out: Agar Dilution MIC
Strep. A = test: Agar Dilution MIC (Table I); assay type: cell-based; conditions: strain C203; read-out: Agar Dilution MIC
Staph. epi [5] = test: Expanded Spectrum MIC (Table II); assay type: cell-based
Excerpt: as §1
(§4) Expanded Spectrum MIC (μg/ml)

Staph. aureus [6] = test: Expanded Spectrum MIC (Table II); assay type: cell-based; conditions: Staphylococcus aureus
Excerpt: as §1, §4

H. influenzae = test: Expanded Spectrum MIC (Table II); assay type: cell-based; conditions: Haemophilus influenzae
Excerpt: as §1, §4

pKa (66% aqueous DMF) = assay type: physicochemical
Bacteroides fragilis [7] = test: Expanded anaerobic Spectrum MIC (Table IV); assay type: cell-based
[8] = test system: β-lactamase, organism TEM; assay type: biochemical; conditions: lower numbers mean greater stability
Haemophilus influenzae = test: Expanded H. influenzae Spectrum MIC (Table IV); assay type: cell-based
[9] = test system: β-lactamase, organism 1313G; test: Stability to β-lactamase (Table V); assay type: biochemical; conditions: lower numbers mean greater stability
[10] = test system: β-lactamase, organism PS185; test: Stability to β-lactamase (Table V); assay type: biochemical; conditions: lower numbers mean greater stability
[11] = test system: β-lactamase, organism 265A; test: Stability to β-lactamase (Table V); assay type: biochemical; conditions: lower numbers mean greater stability
[12] = test system: β-lactamase, organism 1082E; test: Stability to β-lactamase (Table V); assay type: biochemical; conditions: lower numbers mean greater stability
[13] = read-out: MIC mean, mean over strains

Work on CC1=C(C(=O)O)N2C(=O)C(NC(=O)[C@H](N)c3csc4cc(F)ccc34)C2SC1 (stereo partly drawn) [Ex. 17, D-7-(6-Fluoro-3-benzothienyl)glycylamido-3-methyl-3-cephem-4-carboxylic acid] yielded an MIC (Strep. D; strain 2041) of 64 µg/mL (≈ 152 µM), an MIC (Strep. D; strain X66) of 128 µg/mL (≈ 304 µM) and an MIC (Klebsiella; strain KAE) of 128 µg/mL (≈ 304 µM). For the same molecule, the MIC (Klebsiella; strain X26) was 2 µg/mL (≈ 4.75 µM), the MIC (Klebsiella; strain X68) was 128 µg/mL (≈ 304 µM) and the MIC (E. coli; strain EC14) was 64 µg/mL (≈ 152 µM). It also gave an MIC (E. coli; strain N10) of 128 µg/mL (≈ 304 µM), an MIC (E. coli; strain TEM) of 64 µg/mL (≈ 152 µM) and an MIC (Staph. epi [1]; strain 222) of 2 µg/mL (≈ 4.75 µM). For the same molecule, the MIC (Staph. epi [1]; strain EPI1) was 4 µg/mL (≈ 9.49 µM), the MIC (Staph. aureus [2]; strain V41) was 8 µg/mL (≈ 19 µM) and the MIC (Staph. aureus [2]; strain X1.1) was 1 µg/mL (≈ 2.37 µM). It also gave an MIC (Staph. aureus [2]; strain X400) of 64 µg/mL (≈ 152 µM), an MIC (Strep. PN) of 0.5 µg/mL (≈ 1.19 µM) and an MIC (Bacteroides corrodens) of 16 µg/mL (≈ 38 µM). It also gave an MIC (Bacteroides fragilis [3]; strain 9, readings 24 hrs. after incubation) of 4 µg/mL (≈ 9.49 µM), an MIC (Bacteroides fragilis [3]; strain 103, readings 24 hrs. after incubation) of 16 µg/mL (≈ 38 µM) and an MIC (Bacteroides fragilis [3]; strain 104, readings 24 hrs. after incubation) of 2 µg/mL (≈ 4.75 µM). For the same molecule, the MIC (Bacteroides fragilis [3]; strain 106, readings 24 hrs. after incubation) was 4 µg/mL (≈ 9.49 µM), the MIC (Bacteroides fragilis [3]; strain 107, readings 24 hrs. after incubation) was 8 µg/mL (≈ 19 µM) and the MIC (Bacteroides fragilis [3]; strain 108, readings 24 hrs. after incubation) was 4 µg/mL (≈ 9.49 µM). For the same molecule, the MIC (Bacteroides fragilis [3]; strain 110, readings 24 hrs. after incubation) was 4 µg/mL (≈ 9.49 µM), the MIC (Bacteroides fragilis [3]; strain 111, readings 24 hrs. after incubation) was 32 µg/mL (≈ 75.9 µM) and the MIC (Bacteroides fragilis [3]; strain 1877, readings 24 hrs. after incubation) was 8 µg/mL (≈ 19 µM). It also gave an MIC ([4]; strain 1438, readings 24 hrs. after incubation) of 8 µg/mL (≈ 19 µM), an MIC ([4]; strain 1900A, readings 24 hrs. after incubation) of 32 µg/mL (≈ 75.9 µM) and an MIC (H. influ.; strain 76) of 0.5 µg/mL (≈ 1.19 µM). The MIC (H. influ.; strain C.L.) was 2 µg/mL (≈ 4.75 µM), the MIC (Strep. A) was 0.125 µg/mL (≈ 0.297 µM) and the MIC (Staph. epi [5]; strain 219) was 0.5 µg/mL (≈ 1.19 µM). The MIC (Staph. epi [5]; strain 269) was 2 µg/mL (≈ 4.75 µM), the MIC (Staph. epi [5]; strain 270) was 2 µg/mL (≈ 4.75 µM) and the MIC (Staph. epi [5]; strain 285) was 1 µg/mL (≈ 2.37 µM). The MIC (Staph. epi [5]; strain 286) was 0.25 µg/mL (≈ 0.593 µM), the MIC (Staph. epi [5]; strain EPI1) was 4 µg/mL (≈ 9.49 µM) and the MIC (Staph. aureus [6]; strain S224) was 1 µg/mL (≈ 2.37 µM). It also gave an MIC (Staph. aureus [6]; strain S225) of 1 µg/mL (≈ 2.37 µM), an MIC (Staph. aureus [6]; strain S226) of 1 µg/mL (≈ 2.37 µM) and an MIC (Staph. aureus [6]; strain S227) of 1 µg/mL (≈ 2.37 µM). For the same molecule, the MIC (Staph. aureus [6]; strain S228) was 0.5 µg/mL (≈ 1.19 µM), the MIC (Staph. aureus [6]; strain S229) was 1 µg/mL (≈ 2.37 µM) and the MIC (Staph. aureus [6]; strain S230) was 1 µg/mL (≈ 2.37 µM). It also gave an MIC (Staph. aureus [6]; strain S231) of 0.5 µg/mL (≈ 1.19 µM), an MIC (Staph. aureus [6]; strain S234) of 1 µg/mL (≈ 2.37 µM) and an MIC (Staph. aureus [6]; strain S237) of 1 µg/mL (≈ 2.37 µM). For the same molecule, the MIC (Staph. aureus [6]; strain S238) was 1 µg/mL (≈ 2.37 µM), the MIC (Staph. aureus [6]; strain S239) was 1 µg/mL (≈ 2.37 µM) and the MIC (H. influenzae; strain 76) was 1 µg/mL (≈ 2.37 µM). For the same molecule, the MIC (H. influenzae; strain 105) was 0.5 µg/mL (≈ 1.19 µM), the MIC (H. influenzae; strain 158) was 0.5 µg/mL (≈ 1.19 µM) and the MIC (H. influenzae; strain 164) was 0.5 µg/mL (≈ 1.19 µM). It also gave an MIC (H. influenzae; strain 169) of 1 µg/mL (≈ 2.37 µM), an MIC (H. influenzae; strain 171) of 1 µg/mL (≈ 2.37 µM) and an MIC (H. influenzae; strain 312) of 0.5 µg/mL (≈ 1.19 µM). For the same molecule, the MIC (H. influenzae; strain 1683) was 0.25 µg/mL (≈ 0.593 µM), the MIC (H. influenzae; strain 1930) was 0.5 µg/mL (≈ 1.19 µM) and the MIC (H. influenzae; strain 4842) was 0.5 µg/mL (≈ 1.19 µM). The MIC (H. influenzae; strain C.L.) was 2 µg/mL (≈ 4.75 µM), the MIC (H. influenzae; strain HESS) was 1 µg/mL (≈ 2.37 µM) and the MIC (H. influenzae; strain M366) was 64 µg/mL (≈ 152 µM). For the same molecule, the MIC (H. influenzae; strain M370) was 0.5 µg/mL (≈ 1.19 µM), the MIC (H. influenzae; strain M371) was 0.5 µg/mL (≈ 1.19 µM) and the MIC (H. influenzae; strain R465) was 64 µg/mL (≈ 152 µM). It also gave an MIC (H. influenzae; strain STEL) of 64 µg/mL (≈ 152 µM).

In the case of C=CCOC(=O)NC(C(=O)O)c1csc2ccccc12 (stereo not shown) [N-Allyloxycarbonyl-(3-benzothienyl)glycine], the pKa (pKa (66% aqueous DMF)) is reported as 5.7.

Work on N[C@@H](C(=O)N[C@@H]1C(=O)N2C(C(=O)O)=C(Cl)CS[C@H]12)c1ccccc1 [cefaclor] yielded an MIC (Bacteroides fragilis [7]; read-out: MIC Geometric mean, geometric mean over strains) of 32 µg/mL (≈ 87 µM), an MIC (Bacteroides fragilis [7]; [13]) of 39 µg/mL (≈ 106 µM) and an MIC (Bacteroides fragilis [7]; strain 180-821) of 64 µg/mL (≈ 174 µM). For the same molecule, the MIC (Bacteroides fragilis [7]; strain 10668) was 64 µg/mL (≈ 174 µM), the MIC (Bacteroides fragilis [7]; strain 10683) was 16 µg/mL (≈ 43.5 µM) and the MIC (Bacteroides fragilis [7]; strain 10695) was 32 µg/mL (≈ 87 µM). The MIC (Bacteroides fragilis [7]; strain 10732) was 16 µg/mL (≈ 43.5 µM), the MIC (Bacteroides fragilis [7]; strain 10750) was > 64 µg/mL and the MIC (Bacteroides fragilis [7]; strain 10774) was > 64 µg/mL. For the same molecule, the MIC (Bacteroides fragilis [7]; strain 10817) was 64 µg/mL (≈ 174 µM), the MIC (Bacteroides fragilis [7]; strain 10837) was > 64 µg/mL and the MIC (Bacteroides fragilis [7]; strain 107266) was 16 µg/mL (≈ 43.5 µM). For the same molecule, the MIC (Bacteroides fragilis [7]; strain 107268) was 16 µg/mL (≈ 43.5 µM), the MIC (Bacteroides fragilis [7]; strain 108133) was 32 µg/mL (≈ 87 µM) and the “Stability to β-lactamase” value [8] was 23. For the same molecule, the MIC (Haemophilus influenzae; read-out: MIC Geometric Mean, geometric mean over strains) was 2 µg/mL (≈ 5.44 µM), the MIC (Haemophilus influenzae; [13]) was 3 µg/mL (≈ 8.16 µM) and the MIC (Haemophilus influenzae; strain 101) was 2 µg/mL (≈ 5.44 µM). For the same molecule, the MIC (Haemophilus influenzae; strain 102) was 16 µg/mL (≈ 43.5 µM), the MIC (Haemophilus influenzae; strain 103) was 2 µg/mL (≈ 5.44 µM) and the MIC (Haemophilus influenzae; strain 104) was 1 µg/mL (≈ 2.72 µM). It also gave an MIC (Haemophilus influenzae; strain 105) of 1 µg/mL (≈ 2.72 µM), an MIC (Haemophilus influenzae; strain 106) of 2 µg/mL (≈ 5.44 µM) and an MIC (Haemophilus influenzae; strain 107) of 2 µg/mL (≈ 5.44 µM). The MIC (Haemophilus influenzae; strain 108) was 1 µg/mL (≈ 2.72 µM), the MIC (Haemophilus influenzae; strain 109) was 2 µg/mL (≈ 5.44 µM) and the MIC (Haemophilus influenzae; strain 110) was 1 µg/mL (≈ 2.72 µM). For the same molecule, the MIC (Haemophilus influenzae; strain 111) was 1 µg/mL (≈ 2.72 µM), the MIC (Haemophilus influenzae; strain 112) was 2 µg/mL (≈ 5.44 µM) and the MIC (Haemophilus influenzae; strain 113) was 2 µg/mL (≈ 5.44 µM). For the same molecule, the MIC (Haemophilus influenzae; strain 114) was 1 µg/mL (≈ 2.72 µM), the “Stability to β-lactamase” value [9] was 4605 and the “Stability to β-lactamase” value [10] was 71. The “Stability to β-lactamase” value [11] was 138 and the “Stability to β-lactamase” value [12] was 65.
